Measurements: US20120130144A1, “TREATMENT OF LUNG CANCER WITH A NITROBENZAMIDE COMPOUND IN COMBINATION WITH A GROWTH FACTOR INHIBITOR” (BiPar Sciences, Inc., priority 2009, published 2012)
“Also recorded” adds a separate entry of the source. Where two headings read alike, the source gives them in different places.

Assays:
[1] = test system: HCC827 cells; test: FACS-based cell cycle analysis (PI/BrdU), Example 1; settings: GFT 0 nM, 72 hours; for G1 / G2/M / S: percentage of cells
Description: After the addition of drugs, irradiation and incubation, cells are taken for counting and PI (Propidium Iodide) exclusion assay. One part of the cells is centrifuged and resuspended in 0.5 ml ice-cold PBS containing 5 μg/ml of PI. The other part of the cells is fixed in ice-cold 70% ethanol and stored in a freezer overnight. For cell cycle analysis, cells are stained with propidium iodide (PI) as described hereinabove. Cellular DNA content is determined by flow cytometry using BD LSRII FACS, and the percentages of cells in G1, S or G2/M are determined using ModFit software.
50 μl of BrdU (Sigma Chemical Co., St. Louis, Mo.) stock solution (1 mM) is added to achieve final concentration of 10 μM BrdU. Then cells are incubated for 30 min at 37° C. and fixed in ice-cold 70% ethanol and stored at 4° C. overnight. Fixed cells are centrifuged and washed once in 2 ml PBS, then resuspended in 0.7 ml of denaturation solution (0.2 mg/ml pepsin in 2 N HCl) for 15 min at 37° C. in the dark, then 1.04 ml 1M Tris buffer (Trizma base, Sigma Chemical Co.) is added to terminate the hydrolysis. Cells are washed in 2 ml PBS and resuspended in 100-μl (1:100 dilution) of anti-BrdU antibody (DakoCytomation, Carpinteria, Calif.) in TBFP permeable buffer (0.5% Tween-20, 1% bovine serum albumin and 1% fetal bovine serum in PBS), incubated for 25 min at room temperature in the dark and washed in 2 ml PBS. The primary antibody-labeled cells are resuspended in 100 μl ALEXA FLUOR® F(ab′)2 fragment of goat anti-mouse IgG (H+L) (1:200 dilution, 2 mg/mL, Molecular Probes, Eugene, Oreg.) in TBFP buffer and incubated for 25 min at room temperature in the dark and washed in 2 ml PBS, then resuspended in 0.5 ml ice-cold PBS containing 1 μg/ml 4′,6-diamidino-2-phenylindole (DAPI) for at least 30 min. All cell samples are analyzed with a BD LSR II (BD Biosciences, San Jose, Calif.). All flow cytometry analyses are carried out using triplicate samples containing at least 30,000 cells each (typical results of independent experiments are shown).

[2] = in vivo; cited from earlier work
[3] = test system: HCC827 non-small cell lung carcinoma cells; test: Number of vital (proliferating) cells relative to control, Example 1A; format: cell-based; settings: for Live Cell: HCC827 (NSCLC), GFT 0 nM, 72 hours, percentage relative to control
Description: (§1) HCC827 non-small cell lung carcinoma cells were obtained from ATCC, Rockville, Md. […] Central dose rate of approximately 1.30 Gy/minute (130 rad/minute).
Following treatment, the number of vital cells was measured. Percentage of the vital (proliferating) cells under different treatments was calculated relative to the control (untreated) cells.
(§2) After the addition of the compounds as described above, irradiation and incubation, cells were trypsinized and aliquots of the samples were taken for counting and PI (Propidium Iodide) exclusion assay. One part of the cells was centrifuged and resuspended in 0.5 ml ice-cold PBS containing 5 ug/ml of PI. The other part of the cells was fixed in ice-cold 70% ethanol and stored in a freezer overnight. For cell cycle analysis, cells were stained with propidium iodide (PI) by standard procedures. Cellular DNA content was determined by flow cytometry using BD LSRII FACS, and the percentages of cells in G1, S or G2/M were determined using ModFit software.

[4] = test system: HCC827 non-small cell lung carcinoma cells; test: TUNEL apoptosis detection (FACS), Example 1A; format: cell-based; settings: for TUNEL (+): HCC827 (NSCLC), GFT 0 nM, 72 hours
From the text: as §1
The cells were labeled for apoptosis detection with the “In Situ Cell Death Detection Kit, Fluorescein” (Roche Diagnostics Corporation, Roche Applied Science, Indianapolis, Ind.) and analyzed based on the modified protocol from Dr. Darzynkiewicz laboratory. Briefly, fixed cells were centrifuged and washed once in phosphate-buffered saline (PBS) containing 1% bovine serum albumin (BSA), then resuspended in 2 ml permeabilization buffer (0.1% Triton X-100 and 0.1% sodium citrate in PBS) for 25 min at room temperature and washed twice in 0.2 ml PBS/1% BSA. The cells were resuspended in 50 μl TUNEL reaction mixture (TdT enzyme and labeling solution) and incubated for 60 min at 37° C. in a humidified dark atmosphere in an incubator. The labeled cells were washed once in PBS/1% BSA, then resuspended in 0.5 ml ice-cold PBS containing 1 μg/ml 4′,6-diamidino-2-phenylindole (DAPI) for at least 30 min. All cell samples were analyzed with a BD LSR II (BD Biosciences, San Jose, Calif.) and the final percentages of the cell cycle distribution were normalized to singlets viable cell population, excluding cell debris and polyploid cells according established procedure. All flow cytometry analyses were carried out using triplicate samples containing at least 30,000 cells each (typical results of 3 or more independent experiments are shown).

[5] = test system: HCC827 cells; test: TUNEL apoptosis assay (FACS), Example 1; format: cell-based; settings: GFT 0 nM, 72 hours
Description: Lung adenocarcinoma HCC827 cells are cultured in Dulbecco Modified Eagle Medium with 10% fetal bovine serum. […] Cells are plated at a seeding density 10^5 per P100 or at 10^4 per P60 in growth media and incubated 12-18 h at 37° C., 5% CO2. BA and the EGFR inhibitor, IRESSA, are added as a single dose for 72 hours. DMSO is used as a control. […] Following treatment, cells are analyzed with BrdU ELISA assay (Roche Applied Science), FACS based cell cycle assay or TUNEL.
To detect apoptosis, the cells are labeled with the “In Situ Cell Death Detection Kit, Fluorescein” (Roche Diagnostics Corporation, Roche Applied Science, Indianapolis, Ind.). Briefly, fixed cells are centrifuged and washed once in phosphate-buffered saline (PBS) containing 1% bovine serum albumin (BSA), then resuspended in 2 ml permeabilization buffer (0.1% Triton X-100 and 0.1% sodium citrate in PBS) for 25 min at room temperature and washed twice in 0.2 ml PBS/1% BSA. The cells are resuspended in 50 μl TUNEL reaction mixture (TdT enzyme and labeling solution) and incubated for 60 min at 37° C. in a humidified dark atmosphere in an incubator. The labeled cells are washed once in PBS/1% BSA, then resuspended in 0.5 ml ice-cold PBS containing 1 μg/ml 4′,6-diamidino-2-phenylindole (DAPI) for at least 30 min. All cell samples are analyzed with a BD LSR II (BD Biosciences, San Jose, Calif.). […]

[6] = test system: HCC827 cells; test: Viable cell count / growth of HCC827 cells, Example 1; format: cell-based
Description: Lung adenocarcinoma HCC827 cells are cultured in Dulbecco Modified Eagle Medium with 10% fetal bovine serum. […] Cells are plated at a seeding density 10^5 per P100 or at 10^4 per P60 in growth media and incubated 12-18 h at 37° C., 5% CO2. BA and the EGFR inhibitor, IRESSA, are added as a single dose for 72 hours. DMSO is used as a control. Cells are irradiated with 3Gy and 5Gy gamma-irradiation using γ-Irradiator Gammacell 40 Exactor (MDS Nordion, Canada). Following treatment, cells are analyzed with BrdU ELISA assay (Roche Applied Science), FACS based cell cycle assay or TUNEL.
as §2, with “drugs,” for “the compounds as described above,”, “are” for “were trypsinized and aliquots of the samples were”, “is” for “was”, “μg/ml” for “ug/ml”, “are” for “were”, “as described hereinabove.” for “by standard procedures.”

[7] = test system: HCC827 non-small cell lung carcinoma cells; test: FACS cell cycle analysis by DNA content and BrdU incorporation, Example 1A; format: cell-based; set-up: key to Sub-G1 / G1: % of cells in cell cycle phase; settings: for BrdU (−) S / G1 / G2/M / S / Sub-G1: HCC827 (NSCLC), GFT 0 nM, 72 hours
Description: as §1, §2
All cell samples were analyzed as described in [5,6] using a BD LSR II or BD Aria (BD Biosciences, San Jose, Calif.). All flow cytometry analyses were carried out using triplicate samples containing at least 30,000 cells each and the final percentages of the cell cycle distribution were normalized to singlets viable cell population, excluding cell debris and polyploid cells according established procedure.
50 μl of BrdU (Sigma Chemical Co., St. Louis, Mo.) stock solution (1 mM) was added to achieve final concentration of 10 μM BrdU. Then cells were incubated for 30 min at 37° C. and fixed in ice-cold 70% ethanol and stored at 4° C. overnight. Fixed cells were centrifuged and washed once in 2 ml PBS, then resuspended in 0.7 ml of denaturation solution (0.2 mg/ml pepsin in 2 N HCl) for 15 min at 37° C. in the dark, then 1.04 ml 1M Tris buffer (Trizma base, Sigma Chemical Co.) was added to terminate the hydrolysis. Cells were washed in 2 ml PBS and resuspended in 100-μ1(1:100 dilution) of anti-BrdU antibody (DakoCytomation, Carpinteria, Calif.) in TBFP permeable buffer (0.5% Tween-20, 1% bovine serum albumin and 1% fetal bovine serum in PBS), incubated for 25 min at room temperature in the dark and washed in 2 ml PBS. The primary antibody-labeled cells were resuspended in 100 μl ALEXA FLUOR® F(ab)2, fragment of goat anti-mouse IgG (H+L) (1:200 dilution, 2 mg/mL, Molecular Probes, Eugene, Oreg.) in TBFP buffer and incubated for 25 min at room temperature in the dark and washed in 2 ml PBS, then resuspended in 0.5 ml ice-cold PBS containing 1 μg/ml 4′,6-diamidino-2-phenylindole (DAPI) for at least 30 min [3, 6].

[8] = test system: NSCLC tumors; settings: after failure of chemotherapy, cited from earlier work
[9] = test system: HCC827 cells; test: CellTiter 96 Aqueous Cell Proliferation Assay (MTS), Example 2; format: cell-based; settings: in combination with BA (100 μM and 50 μM), 72 hours
[10] = test system: locally advanced or metastatic pancreatic cancer; settings: cited from earlier work
[11] = test system: chemo-refractory NSCLC; settings: phase II, monotherapy, 57 evaluable patients; cited from earlier work
[12] = test system: NSCLC; settings: cited from earlier work
[13] = test system: VEGF; settings: human, in vivo; cited from earlier work
[14] = Homo sapiens, HCC827, 72 h, read-out: Viable Cell
[15] = gefitinib-treated HCC827 cells, FIG. 2c
[16] = Caucasian patients with NSCLC tumors
[17] = combination treatment arm (TARCEVA with gemcitabine)
[18] = phase III versus placebo, NSCLC after failed prior chemotherapy

Chain of VEGF (P15692 207-311 limits assumed): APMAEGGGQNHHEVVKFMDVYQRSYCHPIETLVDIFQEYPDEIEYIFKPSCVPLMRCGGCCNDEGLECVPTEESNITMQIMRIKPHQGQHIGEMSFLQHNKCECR

Compound: NC(=O)c1ccc(I)c([N+](=O)[O-])c1 [BA, 4-iodo-3-nitrobenzamide]
- Sub-G1 ([1]; BA 50 uM): 2.4
- G1 ([1]; BA 50 uM): 46.3
- G2/M ([1]; BA 50 uM): 8.8
- S ([1]; BA 50 uM): 40.6
- Sub-G1 ([1]; BA 100 uM): 15.8
- G1 ([1]; BA 100 uM): 43.8
- G2/M ([1]; BA 100 uM): 12.5
- S ([1]; BA 100 uM): 19.9
- crossing of the blood-brain barrier [2]: known to cross the blood-brain barrier
- distribution into tissues [2]: distributes rapidly and widely into tissues, including the brain and cerebrospinal fluid (CSF)
- Live Cell ([3]; BA 50 uM): 65
- Live Cell ([3]; BA 100 uM): 25
- effect of BA on antiproliferative effect of growth factor inhibitors ([3]; HCC827 cells, FIG. 2a-2c): potentiates antiproliferative effect of growth factor inhibitors
- effect of BA on antitumor activity of gefitinib ([3]; non-small lung carcinoma cells): potentiates antitumor activity of gefitinib
- TUNEL (+) ([4]; BA 50 uM): 5.7
- TUNEL (+) ([4]; BA 100 uM): 32.8
- apoptosis ([4]; gefitinib treated HCC827 cells): induced apoptosis
- TUNEL (+) ([5]; BA 50 uM): 5.7
- TUNEL (+) ([5]; BA 100 uM): 32.8
- effect of BA on the activity of gefitinib (IRESSA) ([6]; HCC827 cell line, FIG. 1): potentiates the activity of gefitinib; also recorded: potentiates the activity of the EGFR inhibitor, IRESSA
- viability at 50 µM [6, 14]: 65%
- viability at 100 µM [6, 14]: 25%
- BrdU (−) S ([7]; BA 50 uM): 1.95
- G1 ([7]; BA 50 uM): 46.26
- G2/M ([7]; BA 50 uM): 8.82
- S ([7]; BA 50 uM): 40.62
- Sub-G1 ([7]; BA 50 uM): 2.36
- BrdU (−) S ([7]; BA 100 uM): 8.05
- G1 ([7]; BA 100 uM): 43.76
- G2/M ([7]; BA 100 uM): 12.49
- S ([7]; BA 100 uM): 19.92
- Sub-G1 ([7]; BA 100 uM): 15.79
- cell cycle arrest ([7]; gefitinib treated HCC827 cells): enhanced cell cycle arrest
- number of cells in G1 and S phases of cell cycle [7, 15]: reduced number of cells in G1 and S phases
- number of dead cells (sub-G1) [7, 15]: induced number of dead cells (sub-G1)

Compound: NC(=O)c1ccc(I)c(N=O)c1 [BNO, 4-iodo-3-nitrosobenzamide]
- Live Cell ([3]; BNO 25 uM): 76
- Live Cell ([3]; BNO 50 uM): 40
- TUNEL (+) ([4]; BNO 25 uM): 2.9
- TUNEL (+) ([4]; BNO 50 uM): 7.7
- BrdU (−) S ([7]; BNO 25 uM): 1.30
- G1 ([7]; BNO 25 uM): 61.10
- G2/M ([7]; BNO 25 uM): 7.20
- S ([7]; BNO 25 uM): 29.30
- Sub-G1 ([7]; BNO 25 uM): 1.10
- BrdU (−) S ([7]; BNO 50 uM): 3.50
- G1 ([7]; BNO 50 uM): 38.74
- G2/M ([7]; BNO 50 uM): 11.41
- S ([7]; BNO 50 uM): 44.24
- Sub-G1 ([7]; BNO 50 uM): 2.10

Compound: COc1cc2ncnc(Nc3ccc(F)c(Cl)c3)c2cc1OCCCN1CCOCC1 [GFT, gefitinib]
- major objective responses [8, 16]: approximately 10%
- major objective responses ([8]; Japanese patients with NSCLC tumors): 25-30%

Compound: COC(=O)[C@@]1(O)C[C@H]2O[C@]1(C)n1c3ccccc3c3c4c(c5c6ccccc6n2c5c31)C(=O)NC4 [K252a, (9S-(9α,10β,12α))-2,3,9,10,11,12-hexahydro-10-hydroxy-10-(methoxycarbonyl)-9-methyl-9,12-epoxy-1H-diindolo[1,2,3-fg:3′,2′,1′-kl]pyrrolo[3,4-i][1,6]benzodiazocin-1-one]
- effect of BA on antiproliferative effects of growth factor receptors inhibitors [9]: potentiation of antiproliferative effects

Compound: COc1cc([C@@H]2c3cc4c(cc3[C@H](O)[C@H]3COC(=O)[C@@H]23)OCO4)cc(OC)c1OC [PPP, (5R,5aS,8aR,9R)-5,8,8a,9-Tetrahydro-9-hydroxy-5-(3,4,5-trimethoxyphenyl)-furo[3′,′: 6,7]naphtho[2,3-d]-1,3-dio xol-6(5aH)-one]
- effect of BA on antiproliferative effects of growth factor receptors inhibitors [9]: potentiation of antiproliferative effects

Compound: C#Cc1cccc(Nc2ncnc3cc(OCCOC)c(OCCOC)cc23)c1 [TARCEVA, erlotinib]
- Median survival [10, 17]: 6.4 months
- one-year survival [10, 17]: 25.6%
- improvement in overall survival ([10]; in combination with gemcitabine, compared with gemcitabine alone): 23.5%
- major objective responses [8, 16]: approximately 10%
- patients achieving disease stabilisation [11]: 51%
- patients surviving for at least 12 months [11]: 40%
- patients affected by rash ([12]; NSCLC primary registration trial): 75%
- tolerability ([12]; clinical trials): generally well tolerated
- improvement in median survival [12, 18]: 42%
- improvement in one-year survival [12, 18]: 45%

Compound: Nc1ccn([C@@H]2O[C@H](CO)[C@@H](O)C2(F)F)c(=O)n1 [gemcitabine]
- Median survival ([10]; gemcitabine plus placebo): 5.9 months
- one-year survival ([10]; gemcitabine plus placebo): 19.7%

Compound: bevacizumab: first anti-VEGF drug, a monoclonal antibody
- patients who benefit from therapy [13]: 10-15%
